Source: US12319672B2, “Alpha-D-galactopyranoside derivatives” (Idorsia Pharmaceuticals Ltd, priority 2019, dated 2025)
pIC50: −log10 of the molar value.

Legend:
[1] = target: human Gal-3 (hGal-3) (Homo sapiens (Human), UniProt P17931); assay: Competitive binding assay: binding of biotinylated hGal-3 to microplate-adsorbed asialofetuin (ASF); conditions: Activity on hGal-3; mean values of several measurements
Outline: (§1)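 Biotin-hGal-3/hGal-1 300-1000 ng/mL + cpd (DMSO dilutions) on ASF-coated plate, 3 h 4° C; wash; SA-HRP 80 ng/mL 1 h 4° C; wash; ABTS. IC50 = mean of several runs. hGal-1 preferably Cys→Ser (all six) mutant.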

[2] = target: human Gal-1 (hGal-1); assay: Competitive binding assay: binding of biotinylated hGal-1 to microplate-adsorbed asialofetuin (ASF); conditions: Activities on hGal-1; mean values of several measurements
Outline: as §1

human Gal-1 (hGal-1), sequence (P09382 2-135 limits assumed): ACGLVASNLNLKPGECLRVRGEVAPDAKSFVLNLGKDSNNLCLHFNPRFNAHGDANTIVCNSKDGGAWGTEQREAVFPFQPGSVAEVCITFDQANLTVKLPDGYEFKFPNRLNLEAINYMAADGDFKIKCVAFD
human Gal-3 (hGal-3), sequence (P17931 whole entry): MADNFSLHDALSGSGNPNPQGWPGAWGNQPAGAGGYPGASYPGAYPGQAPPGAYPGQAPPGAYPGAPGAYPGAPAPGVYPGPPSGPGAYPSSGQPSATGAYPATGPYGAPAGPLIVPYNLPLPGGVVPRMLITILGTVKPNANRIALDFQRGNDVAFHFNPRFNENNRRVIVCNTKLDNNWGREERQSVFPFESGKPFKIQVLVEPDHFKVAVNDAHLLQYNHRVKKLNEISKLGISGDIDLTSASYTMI

Row | Structure (SMILES) | pIC50 [1] | pIC50 [2]
1 | CO[C@@H]1[C@@H](n2cc(-c3cc(F)c(F)c(F)c3)nn2)[C@@H](O)[C@@H](CO)O[C@@H]1Cc1cc(C2(C)COC2)no1 [Ex 1.211] | 7.03 | 6.35
2 | CCC1(c2cc(C[C@H]3O[C@H](CO)[C@H](O)[C@H](n4cc(-c5cc(F)c(F)c(F)c5)nn4)[C@H]3OC)on2)COC1 [Ex 1.212] | 6.80 | 5.80
3 | CO[C@@H]1[C@@H](n2cc(-c3cc(F)c(F)c(F)c3)nn2)[C@@H](O)[C@@H](CO)O[C@@H]1Cc1cc(C2(F)CC2)no1 [Ex 1.213] | 6.80 | 5.81
4 | CO[C@@H]1[C@@H](n2cc(-c3cc(F)c(F)c(F)c3)nn2)[C@@H](O)[C@@H](CO)O[C@@H]1Cc1cc(C2(C(F)F)CC2)no1 [Ex 1.214] | 6.89 | 6.04
5 | CO[C@@H]1[C@@H](n2cc(-c3cc(F)c(F)c(F)c3)nn2)[C@@H](O)[C@@H](CO)O[C@@H]1Cc1cc(C2(C)CC2)no1 [Ex 1.215] | 7.00 | 6.21
6 | CO[C@@H]1[C@@H](n2cc(-c3cc(F)c(F)c(F)c3)nn2)[C@@H](O)[C@@H](CO)O[C@@H]1Cc1cc(C(C)(C)NC(=O)OC(C)(C)C)no1 [Ex 1.216] | 6.47 | 5.40
7 | CO[C@@H]1[C@@H](n2cc(-c3cc(F)c(F)c(F)c3)nn2)[C@@H](O)[C@@H](CO)O[C@@H]1Cc1cc(C(C)(C)N)no1 [Ex 1.217] | 6.74 | 5.69
8 | CO[C@@H]1[C@@H](n2cc(-c3cc(F)c(F)c(Cl)c3)nn2)[C@@H](O)[C@@H](CO)O[C@@H]1Cc1cc(C2CCCCC2)on1 [Ex 1.218] | 6.38 | 4.97
9 | CO[C@@H]1[C@@H](n2cc(-c3cc(F)c(F)c(Cl)c3)nn2)[C@@H](O)[C@@H](CO)O[C@@H]1Cc1cc(C2CCN(C(C)=O)CC2)on1 [Ex 1.219] | 7.64 | 6.37
10 | CCOC(=O)N1CCC(c2cc(C[C@H]3O[C@H](CO)[C@H](O)[C@H](n4cc(-c5cc(F)c(F)c(Cl)c5)nn4)[C@H]3OC)no2)CC1 [Ex 1.220] | 7.46 | 6.24
11 | CO[C@@H]1[C@@H](n2cc(-c3cc(F)c(F)c(Cl)c3)nn2)[C@@H](O)[C@@H](CO)O[C@@H]1Cc1cc(C(C)(C)C)on1 [Ex 1.221] | 6.80 | 6.01
12 | CO[C@@H]1[C@@H](n2cc(-c3cc(F)c(F)c(F)c3)nn2)[C@@H](O)[C@@H](CO)O[C@@H]1Cc1cc(C2CCCC2)no1 [Ex 1.222] | 6.96 | 5.10
13 | CO[C@@H]1[C@@H](n2cc(-c3cc(F)c(C#N)c(F)c3)nn2)[C@@H](O)[C@@H](CO)O[C@@H]1CC1CC(C2CCN(C(=O)OC(C)(C)C)CC2)=NO1 (stereo partly drawn) [Ex 1.223] | 6.42 | 4.78
14 | CO[C@@H]1[C@@H](n2cc(-c3ccc(C)c(F)c3F)nn2)[C@@H](O)[C@@H](CO)O[C@@H]1Cc1cc(C2CCC2)on1 [Ex 1.224] | 7.15 | 4.85
15 | CO[C@@H]1[C@@H](n2cc(-c3cc(F)c(F)c(F)c3)nn2)[C@@H](O)[C@@H](CO)O[C@@H]1Cc1cc(C2(O)CCC2)on1 [Ex 1.225] | 6.28 | 5.31
16 | CO[C@@H]1[C@@H](n2cc(-c3ccc(F)c(F)c3F)nn2)[C@@H](O)[C@@H](CO)O[C@@H]1Cc1cc(C2CCC2)on1 [Ex 1.226] | 6.89 | 5.92
17 | CO[C@@H]1[C@@H](n2cc(-c3ccc(Cl)c(F)c3F)nn2)[C@@H](O)[C@@H](CO)O[C@@H]1Cc1cc(C2CCC2)on1 [Ex 1.227] | 7.11 | 4.78
18 | CO[C@@H]1[C@@H](n2cc(-c3cccc(F)c3)nn2)[C@@H](O)[C@@H](CO)O[C@@H]1Cc1cc(C2CCN(C(=O)OC(C)(C)C)CC2)on1 [Ex 1.228] | 6.70 | 6.10
19 | CO[C@@H]1[C@@H](n2cc(-c3ccc(C)c(F)c3F)nn2)[C@@H](O)[C@@H](CO)O[C@@H]1Cc1cc(-c2ccc(F)c(F)c2F)on1 [Ex 1.229] | 6.28 | < 4.00
20 | CO[C@@H]1[C@@H](n2cc(-c3ccc(Cl)c(F)c3F)nn2)[C@@H](O)[C@@H](CO)O[C@@H]1Cc1cc(-c2ccc(F)c(F)c2F)on1 [Ex 1.231] | 6.04 | < 4.00
21 | CO[C@@H]1[C@@H](n2cc(-c3ccc(F)c(F)c3F)nn2)[C@@H](O)[C@@H](CO)O[C@@H]1Cc1cc(C(C)(C)O)on1 [Ex 1.232] | 7.00 | 6.01
22 | CO[C@@H]1[C@@H](n2cc(-c3ccc(F)c(F)c3F)nn2)[C@@H](O)[C@@H](CO)O[C@@H]1Cc1cc(C2(O)CCCCC2)on1 [Ex 1.233] | 7.06 | 5.88
23 | CO[C@@H]1[C@@H](n2cc(-c3ccc(F)c(F)c3F)nn2)[C@@H](O)[C@@H](CO)O[C@@H]1Cc1cc(C2(O)CCCC2)on1 [Ex 1.234] | 7.24 | 5.90
24 | CO[C@@H]1[C@@H](n2cc(-c3ccc(F)c(F)c3F)nn2)[C@@H](O)[C@@H](CO)O[C@@H]1Cc1cc(C2CCCC2)on1 [Ex 1.235] | 7.00 | 5.88

Row | Structure (SMILES) | pIC50 [1] | pIC50 [2]
25 | CO[C@@H]1[C@@H](n2cc(-c3ccc(F)c(F)c3F)nn2)[C@@H](O)[C@@H](CO)O[C@@H]1Cc1cc(C2(O)CCC2)on1 [Ex 1.236] | 7.24 | 6.02
26 | CO[C@@H]1[C@@H](n2cc(-c3ccc(C)c(F)c3F)nn2)[C@@H](O)[C@@H](CO)O[C@@H]1Cc1cc(C(C)(C)O)on1 [Ex 1.237] | 7.12 | 5.37
27 | CO[C@@H]1[C@@H](n2cc(-c3ccc(C)c(F)c3F)nn2)[C@@H](O)[C@@H](CO)O[C@@H]1Cc1cc(C2(O)CCCCC2)on1 [Ex 1.238] | 7.35 | 5.43
28 | CO[C@@H]1[C@@H](n2cc(-c3ccc(C)c(F)c3F)nn2)[C@@H](O)[C@@H](CO)O[C@@H]1Cc1cc(C2(O)CCCC2)on1 [Ex 1.239] | 7.14 | 5.19
29 | CO[C@@H]1[C@@H](n2cc(-c3ccc(C)c(F)c3F)nn2)[C@@H](O)[C@@H](CO)O[C@@H]1Cc1cc(C2CCCC2)on1 [Ex 1.240] | 7.00 | 4.86
30 | CO[C@@H]1[C@@H](n2cc(-c3ccc(C)c(F)c3F)nn2)[C@@H](O)[C@@H](CO)O[C@@H]1Cc1cc(C2(O)CCC2)on1 [Ex 1.241] | 7.10 | 5.59
31 | CO[C@@H]1[C@@H](n2cc(-c3ccc(Cl)c(F)c3F)nn2)[C@@H](O)[C@@H](CO)O[C@@H]1Cc1cc(C(C)(C)O)on1 [Ex 1.242] | 7.17 | 5.54
32 | CO[C@@H]1[C@@H](n2cc(-c3ccc(Cl)c(F)c3F)nn2)[C@@H](O)[C@@H](CO)O[C@@H]1Cc1cc(C2(O)CCCCC2)on1 [Ex 1.243] | 7.38 | 5.88
33 | CO[C@@H]1[C@@H](n2cc(-c3ccc(Cl)c(F)c3F)nn2)[C@@H](O)[C@@H](CO)O[C@@H]1Cc1cc(C2(O)CCCC2)on1 [Ex 1.244] | 6.96 | 5.48
34 | CO[C@@H]1[C@@H](n2cc(-c3ccc(Cl)c(F)c3F)nn2)[C@@H](O)[C@@H](CO)O[C@@H]1Cc1cc(C2CCCC2)on1 [Ex 1.245] | 7.17 | 5.73
35 | CO[C@@H]1[C@@H](n2cc(-c3ccc(Cl)c(F)c3F)nn2)[C@@H](O)[C@@H](CO)O[C@@H]1Cc1cc(C2(O)CCC2)on1 [Ex 1.246] | 7.14 | 5.76
36 | CO[C@@H]1[C@@H](n2cc(-c3cc(F)c(C)cc3F)nn2)[C@@H](O)[C@@H](CO)O[C@@H]1Cc1cc(C(C)(C)C)on1 [Ex 1.247] | 6.68 | 5.64
37 | CO[C@@H]1[C@@H](n2cc(-c3cc(F)c(C)cc3F)nn2)[C@@H](O)[C@@H](CO)O[C@@H]1Cc1cc(C2CCCCC2)on1 [Ex 1.248] | 6.15 | < 4.00
38 | CO[C@@H]1[C@@H](n2cc(-c3ccc(Br)c(F)c3)nn2)[C@@H](O)[C@@H](CO)O[C@@H]1Cc1cc(C2CCN(C(=O)OC(C)(C)C)CC2)on1 [Ex 1.249] | 6.82 | 5.75
39 | CO[C@@H]1[C@@H](n2cc(-c3ccc(F)c(F)c3F)nn2)[C@@H](O)[C@@H](CO)O[C@@H]1Cc1cc(C(C)(C)C)no1 [Ex 1.250] | 7.24 | 6.60
40 | CO[C@@H]1[C@@H](n2cc(-c3ccc(F)c(F)c3F)nn2)[C@@H](O)[C@@H](CO)O[C@@H]1Cc1cc(C2(C)CC2)no1 [Ex 1.251] | 7.36 | 6.44
41 | CO[C@@H]1[C@@H](n2cc(-c3ccc(F)c(F)c3F)nn2)[C@@H](O)[C@@H](CO)O[C@@H]1Cc1cc(C2(C)COC2)no1 [Ex 1.252] | 7.16 | 6.55
42 | CO[C@@H]1[C@@H](n2cc(-c3ccc(F)c(F)c3F)nn2)[C@@H](O)[C@@H](CO)O[C@@H]1Cc1cc(C(C)(C)CO)no1 [Ex 1.253] | 7.24 | 6.55
43 | CO[C@@H]1[C@@H](n2cc(-c3ccc(C)c(F)c3F)nn2)[C@@H](O)[C@@H](CO)O[C@@H]1Cc1cc(C(C)(C)C)no1 [Ex 1.254] | 7.51 | 5.95
44 | CO[C@@H]1[C@@H](n2cc(-c3ccc(C)c(F)c3F)nn2)[C@@H](O)[C@@H](CO)O[C@@H]1Cc1cc(C2(C)CC2)no1 [Ex 1.255] | 7.49 | 5.69
45 | CO[C@@H]1[C@@H](n2cc(-c3ccc(C)c(F)c3F)nn2)[C@@H](O)[C@@H](CO)O[C@@H]1Cc1cc(C2(C)COC2)no1 [Ex 1.256] | 7.26 | 5.81
46 | CO[C@@H]1[C@@H](n2cc(-c3ccc(C)c(F)c3F)nn2)[C@@H](O)[C@@H](CO)O[C@@H]1Cc1cc(C(C)(C)CO)no1 [Ex 1.257] | 7.36 | 5.75
47 | CO[C@@H]1[C@@H](n2cc(-c3ccc(Cl)c(F)c3F)nn2)[C@@H](O)[C@@H](CO)O[C@@H]1Cc1cc(C(C)(C)C)no1 [Ex 1.258] | 7.43 | 6.01
48 | CO[C@@H]1[C@@H](n2cc(-c3ccc(Cl)c(F)c3F)nn2)[C@@H](O)[C@@H](CO)O[C@@H]1Cc1cc(C2(C)CC2)no1 [Ex 1.259] | 7.48 | 6.21
